Measurements as given in patent US4087548A, “Complement inhibitors” (American Cyanamid Company, priority 1976, dated 1978).
Structures can show the parent of a compound that is named as a salt.

What was measured:
activated human C1 = target: T1, activated human C1 (Homo sapiens, UniProt P09871); experiment: Test, Code 026 (C1 inhibitor); assay type: biochemical; details: serial two-fold dilutions assay; higher well number indicates higher activity
T1 construct: C1s cleaved into disulfide-linked heavy and light chains; fluid-phase C2 consumption with C4
Description: (§1) This test measures the ability of activated human C1 to destroy fluid phase human C2 in the presence of C4 and appropriate dilutions of the test compound. An active inhibitor protects C2 from C1 and C4; (ii) Test, Code 035 (C3-C9 inhibitor) -- This test determines the ability of the late components of human complement (C3-C9) to lyse EAC 142 in the presence of appropriate dilutions of the test compound. An active inhibitor protects EAC 142 from lysis by human C3-C9; (iii) Test, Code 036 (C-Shunt inhibitor) -- In this test human erythrocytes rendered fragile are lysed in autologous serum via the shunt pathway activated by cobra venom factor in the presence of appropriate dilutions of the test compound. Inhibition of the shunt pathway results in failure of lysis; (iv) Forssman Vasculitis Test -- Here, the well known complement dependent lesion, Forssman vasculitis, is produced in guinea pigs by intradermal injection of rabbit anti-Forssman antiserum. The lesion is measured in terms of diameter, edema and hemorrhage and the extent to which a combined index of these is inhibited by prior intraperitoneal injection of the test compound at 200 mg/kg is then reported, unless otherwise stated; (v) Forssman Shock Test -- Lethal shock is produced in guinea pigs by an i.v. injection of anti-Forssman antiserum and the harmonic mean death time of treated guinea pigs is compared with that of simultaneous controls; (vi) Complement Level Reduction Test -- In this test, the above dosed guinea pigs, or others, are bled for serum and the complement level is determined in undiluted serum by the capillary tube method of U.S. Pat. No. 3,876,376 and compared to undosed control guinea pigs; and (vii) Cap 50 Test -- Here, appropriate amounts of the test compound are added to a pool of guinea pig serum in vitro, after which the undiluted serum capillary tube assay referred to above is run. The concentration of compound inhibiting 50% is reported.
(§2) **Numbers represent activity in wells, a serial dilutions assay, higher
(§3) well number indicates higher activity. The serial dilutions are two-fold.

guinea pigs = experiment: Forssman Shock Test; assay type: in vivo, guinea pig; details: control = 3.15 minutes
Description: as §1
***Harmonic mean death time in minutes. (control = 3.15 minutes).

[1] = test system: shunt pathway activated by cobra venom factor; experiment: Test, Code 036 (C-Shunt inhibitor), lysis of human erythrocytes in autologous serum; assay type: cell-based; details: serial two-fold dilutions assay; higher well number indicates higher activity
Description: as §1, §2, §3

[2] = test system: late components of human complement (C3-C9); experiment: Test, Code 035 (C3-C9 inhibitor), lysis of EAC 142; assay type: cell-based; details: serial two-fold dilutions assay; higher well number indicates higher activity
Protocol: as §1, with “An active inhibitor protects EAC 142 from lysis by human C3-C9; (iii) Test, Code 036 (C-Shunt inhibitor) -- In this test human erythrocytes rendered fragile are lysed in autologous serum via the shunt pathway activated by cobra venom factor in the presence of appropriate dilutions of the test compound. Inhibition of the shunt pathway results in failure of lysis; (iv) Forssman Vasculitis Test -- Here, the well known complement dependent lesion, Forssman vasculitis, is produced in guinea pigs by intradermal injection of rabbit anti-Forssman antiserum.” left out, “The concentration of compound inhibiting 50% is reported.” left out

T1 sequence (P09871 16-688): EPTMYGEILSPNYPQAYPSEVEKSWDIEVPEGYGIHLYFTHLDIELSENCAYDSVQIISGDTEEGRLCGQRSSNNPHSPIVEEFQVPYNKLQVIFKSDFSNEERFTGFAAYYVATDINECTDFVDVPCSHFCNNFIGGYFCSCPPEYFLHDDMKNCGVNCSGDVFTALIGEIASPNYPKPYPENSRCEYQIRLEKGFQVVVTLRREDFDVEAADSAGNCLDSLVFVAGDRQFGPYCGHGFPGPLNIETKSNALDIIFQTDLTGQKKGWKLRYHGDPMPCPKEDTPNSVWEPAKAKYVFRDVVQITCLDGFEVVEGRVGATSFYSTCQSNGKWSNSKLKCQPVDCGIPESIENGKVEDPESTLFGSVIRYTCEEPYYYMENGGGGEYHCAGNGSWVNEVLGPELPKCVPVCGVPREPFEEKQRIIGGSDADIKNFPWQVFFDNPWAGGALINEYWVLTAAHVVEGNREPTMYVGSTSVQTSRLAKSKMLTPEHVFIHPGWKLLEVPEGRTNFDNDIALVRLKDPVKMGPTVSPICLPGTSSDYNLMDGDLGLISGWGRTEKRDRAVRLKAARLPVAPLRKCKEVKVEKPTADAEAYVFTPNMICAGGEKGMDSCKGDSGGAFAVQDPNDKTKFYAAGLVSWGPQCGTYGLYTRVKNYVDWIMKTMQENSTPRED
T1 sequence (P00736 18-705 partner): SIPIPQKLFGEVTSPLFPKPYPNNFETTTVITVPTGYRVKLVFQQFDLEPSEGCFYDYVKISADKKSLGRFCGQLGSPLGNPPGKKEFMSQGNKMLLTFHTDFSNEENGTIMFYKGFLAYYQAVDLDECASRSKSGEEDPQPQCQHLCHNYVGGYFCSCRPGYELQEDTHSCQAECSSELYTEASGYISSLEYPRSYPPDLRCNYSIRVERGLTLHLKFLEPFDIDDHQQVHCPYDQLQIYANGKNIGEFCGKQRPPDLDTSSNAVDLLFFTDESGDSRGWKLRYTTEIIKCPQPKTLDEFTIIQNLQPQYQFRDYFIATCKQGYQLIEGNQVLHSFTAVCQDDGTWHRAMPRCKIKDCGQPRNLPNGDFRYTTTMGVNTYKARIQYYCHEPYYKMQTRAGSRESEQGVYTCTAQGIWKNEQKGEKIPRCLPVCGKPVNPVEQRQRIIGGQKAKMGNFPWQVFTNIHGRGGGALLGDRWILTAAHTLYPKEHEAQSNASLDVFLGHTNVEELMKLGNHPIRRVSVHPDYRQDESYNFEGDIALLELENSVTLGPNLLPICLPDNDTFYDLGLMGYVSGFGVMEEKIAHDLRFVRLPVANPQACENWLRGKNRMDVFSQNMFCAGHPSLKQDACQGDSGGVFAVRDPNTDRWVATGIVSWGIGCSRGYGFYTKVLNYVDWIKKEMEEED
T1 sequence (P02745 23-245 partner): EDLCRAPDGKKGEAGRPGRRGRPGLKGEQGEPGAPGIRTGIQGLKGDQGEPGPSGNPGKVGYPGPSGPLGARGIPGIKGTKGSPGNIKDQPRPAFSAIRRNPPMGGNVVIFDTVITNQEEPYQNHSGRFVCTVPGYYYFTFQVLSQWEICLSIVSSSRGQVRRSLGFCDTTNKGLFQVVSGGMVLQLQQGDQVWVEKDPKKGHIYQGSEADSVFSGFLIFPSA
T1 sequence (P02746 28-253 partner): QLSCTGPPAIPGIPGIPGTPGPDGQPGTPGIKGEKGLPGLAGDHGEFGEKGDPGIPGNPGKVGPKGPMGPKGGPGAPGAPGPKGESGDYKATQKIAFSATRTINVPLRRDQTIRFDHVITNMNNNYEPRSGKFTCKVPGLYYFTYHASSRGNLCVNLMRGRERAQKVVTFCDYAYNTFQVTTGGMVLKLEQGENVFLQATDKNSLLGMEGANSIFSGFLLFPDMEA
T1 sequence (P02747 29-245 partner): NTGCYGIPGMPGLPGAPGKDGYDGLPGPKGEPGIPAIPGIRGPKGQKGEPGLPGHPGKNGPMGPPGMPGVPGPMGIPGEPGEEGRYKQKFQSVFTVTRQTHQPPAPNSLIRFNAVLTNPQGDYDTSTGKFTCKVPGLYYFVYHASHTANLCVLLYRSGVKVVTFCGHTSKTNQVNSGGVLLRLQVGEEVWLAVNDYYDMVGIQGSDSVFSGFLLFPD

How did the “Code 026 (activity in wells)” value (activated human C1) turn out when `Cc1ccc(C(=O)Nc2cc(S(=O)(=O)O)cc3cc(S(=O)(=O)O)cc(S(=O)(=O)O)c23)cc1[N+](=O)[O-]` [8-(3-Nitro-p-toluamido)-1,3,6-naphthalenetrisulfonic acid, trisodium salt] was run?
Its value is “+2 wells”.

And the “Forssman Shock, harmonic mean death time” value (guinea pigs; route not given)?
Its value is 25 min.

How did the “Code 026 (activity in wells)” value (activated human C1) turn out when `O=C(Nc1cccc(C(=O)Nc2cc(S(=O)(=O)[O-])cc3cc(S(=O)(=O)[O-])cc(S(=O)(=O)[O-])c23)c1)Nc1cccc(C(=O)Nc2cc(S(=O)(=O)[O-])cc3cc(S(=O)(=O)[O-])cc(S(=O)(=O)[O-])c23)c1.[Na+].[Na+].[Na+].[Na+].[Na+].[Na+]` [8,8'-[Ureylenebis(m-phenylenecarbonylimino)]di-1,3,6-naphthalenetrisulfonicacid, hexasodium salt] was run?
Its value is “+6 wells”.

And the “Code 036 (activity in wells)” value [1]?
The value was “+1 wells”.

What does the source list for `O=C(Nc1cccc(C(=O)Nc2cc3c(S(=O)(=O)[O-])cc(S(=O)(=O)[O-])cc3cc2S(=O)(=O)[O-])c1)Nc1cccc(C(=O)Nc2cc3c(S(=O)(=O)[O-])cc(S(=O)(=O)[O-])cc3cc2S(=O)(=O)[O-])c1.[Na+].[Na+].[Na+].[Na+].[Na+].[Na+]` [7,7'-[Ureylenebis(m-phenylenecarbonylimino)]di-1,3,6-naphthalenetrisulfonic acid, hexasodium salt]?
Code 035 (activity in wells) [2]: +1 wells; Code 036 (activity in wells) [1]: +1 wells; Forssman Shock, harmonic mean death time (guinea pigs; route not given): 14 min

Which “Code 026 (activity in wells)” value (activated human C1) does the source give for `Cc1ccc(C(=O)Nc2cc(S(=O)(=O)O)cc3cc(S(=O)(=O)O)cc(S(=O)(=O)O)c23)cc1NC(=O)C(=O)Nc1cc(C(=O)Nc2cc(S(=O)(=O)O)cc3cc(S(=O)(=O)O)cc(S(=O)(=O)O)c23)ccc1C` [8,8'-{Oxalylbis {{[imino(4-methyl-1,3-phenylene)]carbonyl}imino}}di-1,3,6-naphthalenetrisulfonic acid, hexasodium salt] here?
The value was “+4 wells”.

And the “Code 036 (activity in wells)” value [1]?
The value was “+3 wells”.

`Nc1ccc(C(=O)Nc2cc(S(=O)(=O)[O-])cc3cc(S(=O)(=O)[O-])cc(S(=O)(=O)[O-])c23)cc1.[Na+].[Na+].[Na+]` [8-(p-Aminobenzamido)-1,3,6-naphthalenetrisulfonic acid, trisodium salt] was tested. Which “Code 026 (activity in wells)” value (activated human C1) did it give?
The value was “+3 wells”.

What about the “Forssman Shock, harmonic mean death time” value (guinea pigs; route not given) of the same molecule?
Its value is 10 min.

For `Cc1ccc(NC(=O)Nc2cccc(C(=O)Nc3cc(S(=O)(=O)[O-])cc4cc(S(=O)(=O)[O-])cc(S(=O)(=O)[O-])c34)c2)cc1[N+](=O)[O-].[Na+].[Na+].[Na+]` [8-{m-[3-(3-Nitro-p-tolyl)ureido]benzamido}-1,3,6-naphthalenetrisulfonic acid, trisodium salt], which “Code 026 (activity in wells)” value (activated human C1) is on record?
Its value is “+2 wells”.

And the “Forssman Shock, harmonic mean death time” value (guinea pigs; route not given)?
Its value is 32 min.

`Cc1ccc(C(=O)Nc2cc(S(=O)(=O)O)cc3cc(S(=O)(=O)O)cc(S(=O)(=O)O)c23)cc1N` [8-(3-Amino-p-toluamido)-1,3,6-naphthalenetrisulfonic acid, trisodium salt] was tested. Which “Code 026 (activity in wells)” value (activated human C1) did it give?
Its value is “+3 wells”.

What about the “Forssman Shock, harmonic mean death time” value (guinea pigs; route not given) of the same molecule?
Its value is 14 min.

What does the source list for `Cc1ccc(NC(=O)Nc2cc(S(=O)(=O)O)cc3cc(S(=O)(=O)O)cc(S(=O)(=O)O)c23)cc1NC(=O)Nc1cc(NC(=O)Nc2cc(S(=O)(=O)O)cc3cc(S(=O)(=O)O)cc(S(=O)(=O)O)c23)ccc1C` [8,8'-{Ureylenebis[(4-methyl-m-phenylene)ureylene]}di-1,3,6-naphthalenetrisulfonic acid, hexasodium salt]?
Code 026 (activity in wells) (activated human C1): +4 wells; Code 036 (activity in wells) [1]: +1 wells

`O=C(Nc1cc2c(S(=O)(=O)[O-])cc(S(=O)(=O)[O-])cc2cc1S(=O)(=O)[O-])c1cccc([N+](=O)[O-])c1.[Na+].[Na+].[Na+]` [7-m-Nitrobenzamido-1,3,6-naphthalenetrisulfonic acid, trisodium salt] was tested. Which “Forssman Shock, harmonic mean death time” value (guinea pigs; route not given) did it give?
Its value is 20 min.

Which results are given for `O=C(Nc1cc(S(=O)(=O)[O-])cc2cc(S(=O)(=O)[O-])cc(S(=O)(=O)[O-])c12)c1ccc([N+](=O)[O-])cc1.[Na+].[Na+].[Na+]` [8-p-Nitrobenzamido-1,3,6-naphthalenetrisulfonic acid, trisodium salt]?
Code 026 (activity in wells) (activated human C1): +1 wells; Forssman Shock, harmonic mean death time (guinea pigs; route not given): 13 min

With `O=C(Nc1ccc(C(=O)Nc2cc(S(=O)(=O)[O-])cc3cc(S(=O)(=O)[O-])cc(S(=O)(=O)[O-])c23)cc1)Nc1ccc(C(=O)Nc2cc(S(=O)(=O)[O-])cc3cc(S(=O)(=O)[O-])cc(S(=O)(=O)[O-])c23)cc1.[Na+].[Na+].[Na+].[Na+].[Na+].[Na+]` [8,8'-[Ureylenebis(p-phenylenecarbonylimino)]di-1,3,6-naphthalenetrisulfonicacid, hexasodium salt] as the molecule, how does the “Code 026 (activity in wells)” value (activated human C1) read?
The value was “+4 wells”.

How did the “Forssman Shock, harmonic mean death time” value (guinea pigs; route not given) turn out when `Cc1ccc(N)cc1C(=O)Nc1cc(S(=O)(=O)O)cc2cc(S(=O)(=O)O)cc(S(=O)(=O)O)c12` [8-(5-Amino-o-toluamido)-1,3,6-naphthalenetrisulfonic acid, trisodium salt] was run?
The value was 14 min.

With `Nc1cccc(C(=O)Nc2cc3c(S(=O)(=O)[O-])cc(S(=O)(=O)[O-])cc3cc2S(=O)(=O)[O-])c1.[Na+].[Na+].[Na+]` [7-(m-Aminobenzamido)-1,3,6-naphthalenetrisulfonic acid, trisodium salt] as the molecule, how does the “Forssman Shock, harmonic mean death time” value (guinea pigs; route not given) read?
Its value is 33 min.

Which “Code 026 (activity in wells)” value (activated human C1) does the source give for `Nc1cccc(C(=O)Nc2cccc(C(=O)Nc3cc(S(=O)(=O)[O-])cc4cc(S(=O)(=O)[O-])cc(S(=O)(=O)[O-])c34)c2)c1.[Na+].[Na+].[Na+]` [8-[m-(m-Aminobenzamido)benzamido]-1,3,6-naphthalene-trisulfonic acid, trisodium salt] here?
Its value is “+2 wells”.

Which results are given for `Cc1cc(C(=O)Nc2cc(S(=O)(=O)O)cc3cc(S(=O)(=O)O)cc(S(=O)(=O)O)c23)ccc1[N+](=O)[O-]` [8-(4-Nitro-m-toluamido)-1,3,6-naphthalenetrisulfonic acid, trisodium salt]?
Code 026 (activity in wells) (activated human C1): +1 wells; Forssman Shock, harmonic mean death time (guinea pigs; route not given): 46 min

Which “Code 026 (activity in wells)” value (activated human C1) does the source give for `Cc1cc(C(=O)Nc2cc(S(=O)(=O)O)cc3cc(S(=O)(=O)O)cc(S(=O)(=O)O)c23)ccc1N` [8-(4-Amino-m-toluamido)-1,3,6-naphthalenetrisulfonic acid, trisodium salt] here?
The value was “+3 wells”.

And the “Forssman Shock, harmonic mean death time” value (guinea pigs; route not given)?
The value was 14 min.

`Cc1ccc(C(=O)Nc2cc(S(=O)(=O)O)cc3cc(S(=O)(=O)O)cc(S(=O)(=O)O)c23)cc1NC(=O)Nc1cc(C(=O)Nc2cc(S(=O)(=O)O)cc3cc(S(=O)(=O)O)cc(S(=O)(=O)O)c23)ccc1C` [8,8'-[Ureylenebis(4-methyl-m-phenylenecarbonylimino)]di-1,3,6-naphthalenetrisulfonic acid, hexasodium salt] was tested. Which “Forssman Shock, harmonic mean death time” value (guinea pigs; i.p.) did it give?
The value was 28 min.

And the “Forssman Shock, harmonic mean death time” value (guinea pigs; i.v.)?
The value was 46 min.

Which results are given for `Cc1ccc(NC(=O)Nc2ccc(C)c(C(=O)Nc3cc(S(=O)(=O)O)cc4cc(S(=O)(=O)O)cc(S(=O)(=O)O)c34)c2)cc1C(=O)Nc1cc(S(=O)(=O)O)cc2cc(S(=O)(=O)O)cc(S(=O)(=O)O)c12` [8,8'-[Ureylenebis(6-methyl-m-phenylenecarbonylimino)]di-1,3,6-naphthalenetrisulfonic acid, hexasodium salt]?
Code 026 (activity in wells) (activated human C1): +5 wells; Code 035 (activity in wells) [2]: +4 wells; Forssman Shock, harmonic mean death time (guinea pigs; route not given): 11 min
